Results reported in US20080089851A1, “Brown Algae Cell Lyophilisate, Method For The Obtention Thereof” (BIOTECHMARINE, priority 2005, published 2008).

How the values were obtained:
[1] = system: microsomes of human keratinocytes; assay: Transport of glucids (glucose), direct treatment of isolated microsomes; format: biochemical; conditions: for Capture of [^3H]3-O-MG: Phloretin 0.25 mM
Protocol: 7.1—Assessment of the Rate of Transport of Macromolecules (Glucids, Lipids and Proteins) in a System of Isolated Microsomes. Direct Effect of the BB Product on Isolated Microsomes: The microsomes of human keratinocytes form a membrane fraction obtained by high-speed differential centrifugation of a cell homogenate. This preparation of microsomes requires the addition of exogenous cofactors such as NADPH. 7.1.1—Transport of Glucids (Glucose) The assay was performed in triplicate after the direct treatment of microsomes. • Charge 1: negative control not receiving any product. • Charge 2: positive control (0.25 mM phloretin) • Charges 3-5: treated with the investigated product (3 concentrations) • Charges 6-8: treated with 0.25 mM phloretin and with the investigated product (3 concentrations) The obtained microsomes from human keratinocytes in culture were washed 3 times with a PBS buffer without glucose then pre-incubated in 1 ml of the same buffer for 30 minutes at 37° C. Subsequently, this solution was discarded and the microsomes placed into the glucose-free PBS buffer containing 3-0-Methyl glucose (MG) and [^3H] 3-0-MG with stirring in a water-bath at 37° C. The capture of 3-0-MG is stopped by addition of 1 ml of cold PBS containing cytochalasine B. The kinetics of incubation was performed between 30 and 120 seconds. The microsomes were further rinsed 2 times with PBS, then dissolved in NaOH (1M) at 4° C., over night. The radioactivity was determined with a scintillation counter. The treatments of microsomes with the BB product alone or in the presence of phloretin were carried out at the same time as the introduction of [3H] 3-0-MG into the incubation medium. The protein assay was performed following the BRADFORD method. The increase in absorbance at 595 nm, determined with spectrophotometer, is proportional to the protein concentration.

[2] = system: normal human keratinocytes; assay: Transport of glucides (glucose), normal human keratinocytes; format: cell-based; conditions: for Capture of [^3H]3-O-MG: Phloretin 0.25 mM
Protocol: The obtained microsomes from human keratinocytes in culture were washed 3 times with a PBS buffer without glucose then pre-incubated in 1 ml of the same buffer for 30 minutes at 37° C. Subsequently, this solution was discarded and the microsomes placed into the glucose-free PBS buffer containing 3-0-Methyl glucose (MG) and [^3H] 3-0-MG with stirring in a water-bath at 37° C. The capture of 3-0-MG is stopped by addition of 1 ml of cold PBS containing cytochalasine B. The kinetics of incubation was performed between 30 and 120 seconds. The microsomes were further rinsed 2 times with PBS, then dissolved in NaOH (1M) at 4° C., over night. The radioactivity was determined with a scintillation counter. 7.2—Assessment of the Rate of Transport of Macromolecules at the Level of Normal Human Keratinocytes The applied method was that of explants allowing to obtain, from a biopsy of human skin, keratinocytes in primary cultures. The assays were carried out on keratinocytes between the 2nd and the 4th passage in order to ensure a reproductibility between the different experiences. The keratinocytes were divided into multiwell plates (6 wells) at a rate of 10^5 cells per well in 1 ml of culture medium […] supplemented with insulin and hydrocortisone. The cells were incubated in the presence and absence of the investigated product. 7.2.1—Transport of Glucides (Glucose) The assay was carried out in triplicate on normal human keratinocytes in culture. • Charge 1: negative control not receiving any product. • Charge 2: positive control (0.25 mM Phloretin) • Charge 3: treated receiving the investigated product • Charges 6-8: treated with 0.25 mM phloretin and the investigated product (3 concentrations) The treatment of keratinocytes with the BB product in the presence and absence of 0.25 mM phloretin was carried out for 20 minutes at 37° C. The membrane microsomes were separated by differential centrifugation. The same protocol of capture of [3H] 3-0-Methyl-Glucose was adopted for the determination of the rate of transport of glucose. (cf. 6.1.1).

[3] = system: human keratinocytes in senescence; assay: Transport of glucids (glucose), human keratinocytes in senescence; format: cell-based; conditions: for Capture of [^3H]3-O-MG: Phloretin 0.25 mM
Protocol: The obtained microsomes from human keratinocytes in culture were washed 3 times with a PBS buffer without glucose then pre-incubated in 1 ml of the same buffer for 30 minutes at 37° C. Subsequently, this solution was discarded and the microsomes placed into the glucose-free PBS buffer containing 3-0-Methyl glucose (MG) and [^3H] 3-0-MG with stirring in a water-bath at 37° C. The capture of 3-0-MG is stopped by addition of 1 ml of cold PBS containing cytochalasine B. The kinetics of incubation was performed between 30 and 120 seconds. The microsomes were further rinsed 2 times with PBS, then dissolved in NaOH (1M) at 4° C., over night. The radioactivity was determined with a scintillation counter. 7.3-Assessment of the Rate of Transport of Macromolecules at the Level of Human Keratinocytes in Senescence The senescence is a phenomenon of cellular aging, where the cells are arrested in the phase G1 of the cell cycle and never enter the synthesis phase leading to the cell division. Senescent cells are characterized by their slow metabolism at synthesis and transport of macromolecules levels. The cells in culture deprived of serum stop their growth, but continue to progress through the cell cycle until they reach the phase G1. The applied method allowed to obtain, from a human skin biopsy, primary cultures of keratinocytes. The assays were performed on keratinocytes, between the 8th and the 10th passage, in order to ensure the presence of senescent cells at control cells level. The keratinocytes were seeded in multiwell plates (6 wells) at a rate of 10^5 cells per well in 3 ml of culture medium […] supplemented with EGF, hydrocortisone, insulin and […]. Afterwards they are maintained for 5 days in incubator under CO2. 7.3.1-Transport of Glucids (Glucose) The assay was carried out in triplicate on human keratinocytes in senescence. • Charge 1: negative control not receiving any product. • Charge 2: positive control (0.25 mM Phloretin) • Charge 3: treated receiving the investigated product • Charges 6-8: treated with 0.25 mM phloretin and with the investigated product (3 concentrations) The treatment of keratinocytes with the BB product in the presence and absence of 0.25 mM phloretin was performed for 20 minutes at 37° C. The membrane microsomes were separated by differential centrifugation. The same protocol of capture of [3H] 3-0-Methyl-Glucose was applied to the determination of the rate of transport of glucose (cf. 6.1.1).

[4] = system: reconstructed CORNEA Skinethic (keratinocytes of the TR 146 line); assay: Mucous tolerance: cytotoxicity (MTT colour) on reconstructed CORNEA Skinethic; format: cell-based, human; design: key to TOXICITY: NI = not irritant; I = irritant; VI = very irritant; conditions: for Colour of both cultures: MTT
Protocol: 1. —Experimental Protocol
Keratinocytes of the TR 146 line, spontaneously transformed, amplified, by cell culture in a defined modified MCDB 153 medium were used.
When cultured on the interface air/liquid in a defined medium, these human keratinocytes form a multilayered epithelium without the cornea layer similar to the human cornea.
The product to be investigated, in this case the BB product according to Example 3, is applied at a rate of 30 μL onto the surface of eight equivalent cultures using a micro-pipette. These cultures are subsequently incubated at 37° C., 5% of CO2, for 10 minutes, 1 hour, 3 hours and 24 hours, at a rate of two cultures by incubation period.
Negative (buffered saline solution) and positive (SDS 0.5% and 1%) controls are prepared sterile and applied in the same way on two cultures, respectively.
These cultures are subsequently incubated at 37° C., 5% of CO2, for 1 hour and 24 hours, at a rate of two cultures by incubation period.
2. —Assessment of the Cellular Viability
The cellular viability is further measured qualitatively after labelling with a vital dye. The MTT system measures the mitochondrial dehydrogenase activity of living cells. The key component is the 3-[4,5-dimethylthiazol-2-yl]-2,5-diphenyl tetrazolium bromide or MTT.
The salt solutions buffered with MTT, in the absence of phenol red, are yellow coloured. The mitochondrial deshydrogenases of living cells cut the tetrazolium cycle, thus inducing formation of purple formazan crystals, insoluble in aqueous solutions.
The crystals formed by the viable cells are trapped in the polycarbonate filters which serve as support to epithelial cultures. The cultures turn to a uniform intense blue/purple colour when they are viable, but remain white/yellow in the case of cell mortality.
The results are compared to negative and positive control substances.
0.15 ml of culture medium containing 10% vol/vol of MTT solution are pipetted under each filter/culture support. After an incubation of 30 min at room temperature, the colour of the different cultures is observed.
Negative control cultures should show an intense blue/purple colour, proof of the viability of mucosa after being in contact for 24 hours.
Positive control cultures should show a white colour, proof of the cellular mortality as from the 1st hour of contact.

O=C(CCc1ccc(O)cc1)c1c(O)cc(O)cc1O [Phloretin, phloretin]
Capture of [^3H]3-O-MG ([1]; 30 s): 4 nmol/mg proteins
Capture of [^3H]3-O-MG ([1]; 60 s): 6 nmol/mg proteins
Capture of [^3H]3-O-MG ([1]; 90 s): 8 nmol/mg proteins
Capture of [^3H]3-O-MG ([1]; 120 s): 8 nmol/mg proteins
rate of transport of glucose (in words) ([1]; phloretin 0.25 mM alone): strongly inhibits
Capture of [^3H]3-O-MG ([2]; 30 s): 6 nmol/mg of proteins
Capture of [^3H]3-O-MG ([2]; 60 s): 8 nmol/mg of proteins
Capture of [^3H]3-O-MG ([2]; 90 s): 9 nmol/mg of proteins
Capture of [^3H]3-O-MG ([2]; 120 s): 10 nmol/mg of proteins
rate of transport of glucose (in words) ([2]; phloretin 0.25 mM alone): strongly inhibits
Capture of [^3H]3-O-MG ([3]; 30 s): 1 nmol/mg of proteins
Capture of [^3H]3-O-MG ([3]; 60 s): 3 nmol/mg of proteins
Capture of [^3H]3-O-MG ([3]; 90 s): 5 nmol/mg of proteins
Capture of [^3H]3-O-MG ([3]; 120 s): 7 nmol/mg of proteins
rate of transport of glucose (in words) ([3]; phloretin 0.25 mM alone): strongly inhibits

CCCCCCCCCCCCOS(=O)(=O)[O-].[Na+] [SDS]
TOXICITY ([4]; SDS 0.5%): I
Colour of both cultures ([4]; SDS 0.5%, 10 min): blue
Colour of both cultures ([4]; SDS 0.5%, 1 h): white
Colour of both cultures ([4]; SDS 0.5%, 3 h): white
TOXICITY ([4]; SDS 1%): VI
Colour of both cultures ([4]; SDS 1%, 10 min): white
Colour of both cultures ([4]; SDS 1%, 1 h): white
